According to patent US5439816A, “Carboxymethylcellulase isolated from bacillus sp. PKM-5430 (FERM BP-4087)” (Kao Corporation, priority 1991, dated 1995):
Like-named read-outs stand apart in the source and are kept apart here.

Columns and labels:
[1] = test system: Carboxymethylcellulase 5430; assay: Effects of chelating agents, thiol reagents, additives and proteinases on Carboxymethylcellulase 5430; assay type: biochemical, Bacillus sp. PKM-5430; details: for stimulated the activity of the enzyme by: added at 1 mM; for Relative activity (%): none = 100
Description: (§1) Activities were determined by the DNS method (J. R. Summer and G. F. Somers, Laboratory Experiments in Biological Chemistry, Academic Press, New York, U.S.A., 1944). Namely, 0.1 ml of a suitably diluted enzyme solution was added to 0.9 ml of a 1.1% (w/v) solution of a CMC (A01MC) substrate in 0.1M glycine-NaOH buffer (pH: 9.0). After a 20-minute reaction at 40° C., 1 ml of 0.05% (w/v) 3,5-dinitrosalicylic acid solution (product of Wako Pure Chemical Industries, Ltd.) was added, and the resulting mixture was immediately placed in a boiling water bath for 5 minutes, followed by cooling in an iced water bath. Then, 4 ml of deionized water was added further, afterwhich, colorimetry was conducted by measuring an absorbance at 535 nm. With respect to enzymatic activity, the amount of enzyme, which liberates reducing sugars corresponding to 1 μmole of glucose for 1 minute, was defined as 1 unit.
(§2) On the other hand, 2-mercaptoethanol and dithiothreitol, each added at 1 mM, stimulated the activity of the enzyme by 39% and 50%, respectively. It was not observed that the proteinases such as alkalase, maxatase, savinase and Protease API-21 inactivated the enzyme of this invention under this reaction conditions.

[2] = test system: Carboxymethylcellulase 5812; assay: Effects of chelating agents, thiol reagents, additives and proteinases on Carboxymethylcellulase 5812; assay type: biochemical, Bacillus sp. PKM-5812; details: for stimulated the activity of the enzyme by: added at 1 mM; for Relative activity (%): none = 100
Description: as §1
as §2, with “52%” for “39%”, “84%,” for “50%,”

[3] = test system: Carboxymethylcellulase 5430; assay type: biochemical, Bacillus sp. PKM-5430
Description: as §1
(§3) However, the activity of the enzyme was not inhibited by the other inhibitors.
(§4) *: The enzyme was pretreated at pH 5.5 (50 mM acetate buffer).

[4] = test system: Carboxymethylcellulase 5812; assay type: biochemical, Bacillus sp. PKM-5812
Description: as §1, §3, §4

[5] = test system: Carboxymethylcellulase 5430; assay: Effects of metal ions on carboxymethylcellulase activity of Carboxymethylcellulase 5430; assay type: biochemical, Bacillus sp. PKM-5430; details: for Relative activity (%): 20 minutes at 40° C., pH 9.0, none = 100
Description: as §1
Among the various metal ions tested, Hg^2+, at 1 mM, inhibited the activity of the enzyme by about 75%. On the contrary, Co^+2, at 1 mM stimulated the activity of the enzyme by about 30% and Mn^+2, at 1 mM, also stimulated the activity by about 50%.

[6] = test system: Carboxymethylcellulase 5812; assay: Effects of metal ions on carboxymethylcellulase activity of Carboxymethylcellulase 5812; assay type: biochemical, Bacillus sp. PKM-5812; details: for Relative activity (%): 20 minutes at 40° C., pH 9.0, none = 100
Description: as §1
Among the various metal ions tested, Hg^2+, at 1 mM, inhibited the activity of the enzyme by about 75%. On the contrary, Co^+2, at 1 mM stimulated the activity of the enzyme by about 50%, and Mn^+2, at 1 mM, also stimulated the activity by 53%.

[7] = test system: Carboxymethylcellulase 5430; assay: Substrate specificity of Carboxymethylcellulase 5430 (hydrolytic activities, DNS method / p-nitrophenol release); assay type: biochemical, Bacillus sp. PKM-5430
Description: as §1
(§5) Sodium hydroxide- and phosphoric acid-swollen celluloses were prepared according to the method of Tomita et al. [Y. Tomita, H. Suzuki and K. Nisizawa, J. Biochem., 78, 499(1975)]. The reducing sugar liberated was determined in a similar manner to that of the method (a) except that substrate solutions containing cellulose substrates were used, and the reaction was conducted at 30° C.
(§6) The reducing sugar liberated was determined in a similar manner to that of the method (a) except that substrate solutions containing polysaccharides were used, and the reaction was conducted at 30° C.
(§7) A suitably diluted enzyme solution was added to a solution of 8 mM of a PNPG or PNPC substrate in 0.1M phosphate buffer of pH 7.0 to react them for 20 minutes at 30° C. The p-nitrophenol liberated was determined at 400 nm and the amount formed was calculated.
(§8) The enzyme is also active toward cellobiose, PNPG, PNPC, cellulose powder and phosphoric acid-swollen cellulose.

[8] = test system: Carboxymethylcellulase 5812; assay: Substrate specificity of Carboxymethylcellulase 5812 (hydrolytic activities, DNS method / p-nitrophenol release); assay type: biochemical, Bacillus sp. PKM-5812
Description: as §1, §5, §6, §7, §8

[9] = test system: Carboxymethylcellulase 5430; assay: Effects of surfactants on carboxymethylcellulase activity of Carboxymethylcellulase 5430; assay type: biochemical, Bacillus sp. PKM-5430; details: for Relative activity (%): surfactant 0.05%, 20 minutes at 40° C., pH 9.0, none = 100
Description: as §1
In particular, SDS and the fatty acid salt stimulated the activity of the enzyme by 26% and 45%, respectively.

[10] = test system: Carboxymethylcellulase 5812; assay: Effects of surfactants on carboxymethylcellulase activity of Carboxymethylcellulase 5812; assay type: biochemical, Bacillus sp. PKM-5812; details: for Relative activity (%): surfactant 0.05%, 20 minutes at 40° C., pH 9.0, none = 100
Description: as §1
In particular, SDS and the fatty acid salt stimulated the activity of the enzyme by 21% and 23%, respectively.

[11] = reagent 1 mM, 20 minutes at 40° C., pH 9.0
[12] = inhibitor 1.0 mM, 20 minutes at 40° C., pH 9.0, none = 100
[13] = substrate 0.1%, activity toward CMC at 30° C. taken as 100%
[14] = metal ion 1 mM, listed as Fe^3+
[15] = inhibitor 0.1 mM, enzyme pretreated at pH 5.5 (50 mM acetate buffer), none = 100
[16] = substrate 8 mM, 0.1M phosphate buffer pH 7.0, 30° C., activity toward CMC taken as 100%
[17] = reagent 0.01%, 20 minutes at 40° C., pH 9.0

Molecule: O[C@H](CS)[C@H](O)CS (racemic) [Dithiothreitol]
- stimulated the activity of the enzyme by [1]: 50%
- Relative activity (%) [1, 11]: 150%
- stimulated the activity of the enzyme by [2]: 84%
- Relative activity (%) [2, 11]: 184%

Molecule: OCCS [2-Mercaptoethanol]
- stimulated the activity of the enzyme by [1]: 39%
- Relative activity (%) [1, 11]: 139%
- stimulated the activity of the enzyme by [2]: 52%
- Relative activity (%) [2, 11]: 152%

Molecule: O=C(O)c1cc[c]([Hg][Cl])cc1 [4-Chloromercuribenzoic acid]
- Relative activity (%) [3, 12]: 118%
- Relative activity (%) [4, 12]: 105%

Molecule: [Al+3] [Al^3+]
- Relative activity (%) ([5]; metal ion 1 mM): 101%
- Relative activity (%) ([6]; metal ion 1 mM): 97%

Molecule: [Ca+2] [Ca^2+]
- Relative activity (%) ([5]; metal ion 1 mM): 108%
- Relative activity (%) ([6]; metal ion 1 mM): 108%

Molecule: OC[C@H]1O[C@@H](O[C@H]2[C@H](O)[C@@H](O)C(O)O[C@@H]2CO)[C@H](O)[C@@H](O)[C@@H]1O (stereo partly shown) [Cellobiose]
- activity of the enzyme toward substrate [7]: active
- Relative activity (%) [7, 13]: 0.4%
- activity of the enzyme toward substrate [8]: active
- Relative activity (%) [8, 13]: 0.4%

Molecule: [Co+2] [Co^2+]
- stimulated the activity of the enzyme by ([5]; at 1 mM): about 30%
- Relative activity (%) ([5]; metal ion 1 mM): 149%
- stimulated the activity of the enzyme by ([6]; at 1 mM): about 50%
- Relative activity (%) ([6]; metal ion 1 mM): 150%

Molecule: [Cu+2] [Cu^2+]
- Relative activity (%) ([5]; metal ion 1 mM): 97%
- Relative activity (%) ([6]; metal ion 1 mM): 98%

Molecule: O=C(O)CN(CCN(CC(=O)O)CC(=O)O)CC(=O)O [EDTA]
- effect of chelating agents on enzyme activity [1]: somewhat inhibited
- Relative activity (%) [1, 11]: 71%
- effect of chelating agents on enzyme activity [2]: somewhat inhibited
- Relative activity (%) [2, 11]: 79%

Molecule: O=C(O)CN(CCOCCOCCN(CC(=O)O)CC(=O)O)CC(=O)O [EGTA]
- effect of chelating agents on enzyme activity [1]: somewhat inhibited
- Relative activity (%) [1, 11]: 66%
- effect of chelating agents on enzyme activity [2]: somewhat inhibited
- Relative activity (%) [2, 11]: 73%

Molecule: [Fe+2] [Fe^2+]
- Relative activity (%) ([5]; metal ion 1 mM): 105%
- Relative activity (%) [5, 14]: 110%
- Relative activity (%) ([6]; metal ion 1 mM): 101%
- Relative activity (%) [6, 14]: 104%

Molecule: [Hg+2] [Hg^2+]
- inhibited the activity of the enzyme by ([5]; at 1 mM): about 75%
- Relative activity (%) ([5]; metal ion 1 mM): 25%
- inhibited the activity of the enzyme by ([6]; at 1 mM): about 75%
- Relative activity (%) ([6]; metal ion 1 mM): 27%

Molecule: Cl.NO [Hydroxylamine hydrochloride]
- Relative activity (%) [3, 12]: 133%
- Relative activity (%) [4, 12]: 123%

Molecule: [K+] [K^+]
- Relative activity (%) ([5]; metal ion 50 mM): 116%
- Relative activity (%) ([6]; metal ion 50 mM): 126%

Molecule: [Mg+2] [Mg^2+]
- Relative activity (%) ([5]; metal ion 1 mM): 108%
- Relative activity (%) ([6]; metal ion 1 mM): 109%

Molecule: [Mn+2] [Mn^2+]
- stimulated the activity of the enzyme by ([5]; at 1 mM): about 50%
- Relative activity (%) ([5]; metal ion 1 mM): 130%
- stimulated the activity of the enzyme by ([6]; at 1 mM): 53%
- Relative activity (%) ([6]; metal ion 1 mM): 153%

Molecule: O=C(O)CI [Monoiodo acetic acid]
- Relative activity (%) ([3]; pH 9): 117%
- Relative activity (%) ([4]; pH 9): 104%

Molecule: O=C1CCC(=O)N1Br [N-Bromosuccinimide]
- inhibited the activity of this enzyme by [3]: 97%
- Relative activity (%) [3, 15]: 4%
- inhibited the activity of this enzyme by [4]: 97%
- Relative activity (%) [4, 15]: 3%

Molecule: [Na+] [Na^+]
- Relative activity (%) ([5]; metal ion 50 mM): 121%
- Relative activity (%) ([6]; metal ion 50 mM): 120%

Molecule: O=[N+]([O-])c1ccc(O[C@@H]2O[C@H](CO)[C@@H](O[C@@H]3O[C@H](CO)[C@@H](O)[C@H](O)[C@H]3O)[C@H](O)[C@H]2O)cc1 [PNPC, p-nitrophenyl-β-D-cellobioside]
- activity of the enzyme toward substrate [7]: active
- Relative activity (%) [7, 16]: 1.0%
- activity of the enzyme toward substrate [8]: active
- Relative activity (%) [8, 16]: 0.6%

Molecule: [Pb+2] [Pb^2+]
- Relative activity (%) ([5]; metal ion 1 mM): 81%
- Relative activity (%) ([6]; metal ion 1 mM): 93%

Molecule: O=S(=O)(F)Cc1ccccc1 [Phenylmethanesulfonyl fluoride, phenylmethanesulfonyl fluoride]
- inhibited the activity of this enzyme by [3]: 24%
- Relative activity (%) [3, 12]: 76%
- Relative activity (%) [4, 12]: 107%

Molecule: CCCCCCCCCCCCOS(=O)(=O)[O-].[Na+] [SDS, sodium dodecyl sulfate]
- effect of surfactants on enzyme activity [9]: either scarcely inhibited or stimulated
- stimulated the activity of the enzyme by [9]: 26%
- Relative activity (%) [9]: 126%
- effect of surfactants on enzyme activity [10]: either scarcely inhibited or stimulated
- stimulated the activity of the enzyme by [10]: 21%
- Relative activity (%) [10]: 121%

Molecule: [N-]=[N+]=[N-] [Sodium azide]
- Relative activity (%) [3, 12]: 118%
- Relative activity (%) [4, 12]: 117%

Molecule: [Zn+2] [Zn^2+]
- Relative activity (%) ([5]; metal ion 1 mM): 92%
- Relative activity (%) ([6]; metal ion 1 mM): 96%

Molecule: c1cnc2c(c1)ccc1cccnc12 [o-Phenanthroline]
- Relative activity (%) [1, 11]: 98%
- Relative activity (%) [2, 11]: 100%

Molecule: sodium alkyl sulfate [AS]
- effect of surfactants on enzyme activity [9]: either scarcely inhibited or stimulated
- Relative activity (%) [9]: 123%
- effect of surfactants on enzyme activity [10]: either scarcely inhibited or stimulated
- Relative activity (%) [10]: 112%

Molecule: sodium linear alkylbenzenesulfonate [LAS]
- effect of surfactants on enzyme activity [9]: either scarcely inhibited or stimulated
- Relative activity (%) [9]: 105%
- effect of surfactants on enzyme activity [10]: either scarcely inhibited or stimulated
- Relative activity (%) [10]: 96%

Molecule: sodium polyoxyethylene alkyl sulfate [ES]
- effect of surfactants on enzyme activity [9]: either scarcely inhibited or stimulated
- Relative activity (%) [9]: 102%
- effect of surfactants on enzyme activity [10]: either scarcely inhibited or stimulated
- Relative activity (%) [10]: 112%

Molecule: sodium α-olefin sulfonate [AOS]
- effect of surfactants on enzyme activity [9]: either scarcely inhibited or stimulated
- Relative activity (%) [9]: 107%
- effect of surfactants on enzyme activity [10]: either scarcely inhibited or stimulated
- Relative activity (%) [10]: 105%

Molecule: sodium α-sulfonated fatty acid ester [α-SFE]
- effect of surfactants on enzyme activity [9]: either scarcely inhibited or stimulated
- Relative activity (%) [9]: 116%
- effect of surfactants on enzyme activity [10]: either scarcely inhibited or stimulated
- Relative activity (%) [10]: 97%

B1: Alkalase: proteinase (protein, UniProt P00780 106-379, looked up)
Subtilisin Carlsberg: AQTVPYGIPLIKADKVQAQGFKGANVKVAVLDTGIQASHPDLNVVGGASFVAGEAYNTDGNGHGTHVAGTVAALDNTTGVLGVAPSVSLYAVKVLNSSGSGSYSGIVSGIEWATTNGMDVINMSLGGASGSTAMKQAVDNAYAKGVVVVAAAGNSGSSGNTNTIGYPAKYDSVIAVGAVDSNSNRASFSSVGAELEVMAPGAGVYSTYPTNTYATLNGTSMASPHVAGAAALILSKHPNLSASQVRNRLSSTATYLGSSFYYGKGLINVEAAAQ
- inactivation of the enzyme by proteinases ([1]; 20 minutes at 40° C., pH 9.0): not observed
- Relative activity (%) [1, 17]: 111%
- inactivation of the enzyme by proteinases ([2]; 20 minutes at 40° C., pH 9.0): not observed
- Relative activity (%) [2, 17]: 107%
